Here are results for six molecules from patent US11584775B2, “C4-modified oleanolic acid derivatives for inhibition of IL-17 and other uses” (REATA PHARMACEUTICALS, INC., priority 2015, dated 2023).

By pIC50 is commonly meant the negative decadic logarithm of the IC50, by convention in mol/L.

The structures appear in SMILES notation. pIC50: −log10 of the molar value.

The test system of one assay is hIL17. The assay can be described thus: IL-17 release from differentiated primary human T-cells (IL-17A HTRF assay). The class given is cell-based. The settings on record: inhibition of IL-17A levels; primary human CD4+ T cells differentiated into Th17 cells, 46-hour incubation. The method in brief: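 Cryopreserved primary human CD4+ T cells were activated with anti-CD3/CD28 beads and driven to Th17 with TGF-β, IL-6, IL-23 and IL-1β in the presence of compound (2-500 nM or 4-1000 nM) for 46 h at 37° C. Supernatant IL-17A was quantified by HTRF against a standard curve and normalized to DMSO. IC50s came from variable-slope fits, with viability read by CyQuant.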
(In general: Time-resolved FRET reads energy transfer from a long-lived donor to a nearby acceptor.)

The next assay has as its target T1, human RORγ (Homo sapiens, UniProt P51449).
T1 sequence (P51449 269-508 limits assumed): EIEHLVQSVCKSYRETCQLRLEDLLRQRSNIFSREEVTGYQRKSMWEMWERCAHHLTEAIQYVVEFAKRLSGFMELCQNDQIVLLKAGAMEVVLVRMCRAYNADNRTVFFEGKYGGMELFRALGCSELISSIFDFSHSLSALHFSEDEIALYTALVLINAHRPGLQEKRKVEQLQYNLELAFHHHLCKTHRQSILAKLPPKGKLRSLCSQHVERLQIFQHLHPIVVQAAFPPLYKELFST
The assay can be described thus: RORγ assay (GAL4-RORγ hybrid luciferase reporter, inverse-agonist activity). The class given is cell-based. The settings on record: GAL4-RORγ hybrid reporter cells, 23 hours. The method in brief:
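Human cell line expressing GAL4-DBD/RORγ hybrid with UAS-driven luciferase, treated in triplicate with compound (0.4–200 nM or 2–1000 nM) for 23 h at 37 °C. Luminescence normalized to DMSO; viability measured in parallel by multiplex assay. IC50 for RORγ and viability by variable-slope nonlinear regression.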
Background: Reporter assays use an easily measured gene product as a stand-in for the process of interest.

A further assay concerns NRF2. The assay can be described thus: AREc32 luciferase reporter assay. The class given is cell-based, human. The settings on record: EC2×: concentration required to increase GST ARE Luciferase reporter activity by 2-fold; AREc32 cells, 19 hours. An outline of the steps:
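AREc32 cells (MCF-7 stably carrying eight rat GSTA2 ARE copies driving firefly luciferase) treated 19 h with compound (0.4–200 nM or 2–1000 nM), triplicate. Luminescence normalized to DMSO as fold-induction; variable-slope fit capped at 50-fold; EC2× = concentration giving 2-fold induction.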

Assay [1] deals with IFNγ-induced Nitric Oxide production. The assay can be described thus: Nitric oxide production assay in RAW 264.7 mouse macrophages. The class given is cell-based. To be noted: RAW264.7, suppression of IFNγ-induced NO production normalized to cell viability (WST-1), RAW 264.7, 24 hours IFNγ. The method in brief:
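Cells pre-treated 2 h with compound (0.4-200 nM or 2-1000 nM) in RPMI 1640 + 0.5% FBS, then stimulated with recombinant mouse IFNγ for 24 h at 37 °C. Nitrite measured by Griess reagent, viability by WST-1; IC50 from NO suppression normalized to viability and to DMSO/IFNγ controls.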
Background: Tetrazolium assays rely on reduction of a dye to a coloured formazan, in cell work by metabolically active cells.

Regarding `COC(=O)[C@]12CCC(C)(C)C[C@H]1[C@H]1C(=O)C=C3[C@@]4(C)C=C(C#N)C(=O)[C@@](C)(CCO)[C@@H]4CC[C@@]3(C)[C@]1(C)CC2` [Compound T19], the pIC50 in the assay with hIL17 was 7.82; at human RORγ, 6.63; in assay [1], 7.76. In the assay on NRF2, the “EC2x: concentration giving 2-fold induction of ARE luciferase reporter” value was determined as 76 nM.
In the same order, the values of `COC[C@]1(C)C(=O)C(C#N)=C[C@]2(C)C3=CC(=O)[C@@H]4[C@@H]5CC(C)(C)CC[C@]5(C(=O)OC)CC[C@@]4(C)[C@]3(C)CC[C@H]21` [Compound T20] are 7.68, 6.65, 7.81 and 175 nM.
On the same counts, the results for `COC(=O)C[C@]1(C)C(=O)C(C#N)=C[C@]2(C)C3=CC(=O)[C@@H]4[C@@H]5CC(C)(C)CC[C@]5(C(=O)OC)CC[C@@]4(C)[C@]3(C)CC[C@H]21` [Compound T21, methyl (4aS,6aR,6bS,8aR,9S,12aS,14aR,14bS)-11-cyano-9-(2-methoxy-2-oxoethyl)-2,2,6a,6b,9,12a-hexamethyl-10,14-dioxo-1,3,4,5,6,6a,6b,7,8,8a,9,10,12a,14,14a,14b-hexadecahydropicene-4a(2H)-carboxylate] are 7.48, 6.69, 6.98 and 269 nM.
For the molecule `CC1(C)CC[C@]2(C(=O)NCC(F)(F)F)CC[C@]3(C)[C@H](C(=O)C=C4[C@@]5(C)C=C(C#N)C(=O)[C@@](C)(CO)[C@@H]5CC[C@]43C)[C@@H]2C1` [Compound T22, (4aS,6aR,6bS,8aR,9R,12aS,14aR,14bS)-11-cyano-9-(hydroxymethyl)-2,2,6a,6b,9,12a-hexamethyl-10,14-dioxo-N-(2,2,2-trifluoroethyl)-1,3,4,5,6,6a,6b,7,8,8a,9,10,12a,14,14a,14b-hexadecahydropicene-4a(2H)-carboxamide], the pIC50 in the assay on hIL17 is 7.30; on human RORγ, 6.59; in assay [1], 7.87. Besides, the “EC2x: concentration giving 2-fold induction of ARE luciferase reporter” value in the assay with NRF2 was 103 nM.
In the same order, the values of `CC(=O)OC[C@]1(C)C(=O)C(C#N)=C[C@]2(C)C3=CC(=O)[C@@H]4[C@@H]5CC(C)(C)CC[C@]5(C(=O)NCC(F)(F)F)CC[C@@]4(C)[C@]3(C)CC[C@H]21` [Compound T23, ((4R,4aR,6aS,6bR,8aS,12aS,12bR,14bS)-2-cyano-4,6a,6b, 11,11,14b-hexamethyl-3,13-dioxo-8a-((2,2,2-trifluoroethyl)carbamoyl)-3,4,4a,5,6,6a,6b,7,8,8a,9,10,11,12,12a,12b,13,14b-octadecahydropicen-4-yl)methyl acetate] are 7.17, 6.84, 6.82 and 484 nM.
In the same order, the values of `CC1(C)CC[C@]2(C(=O)NCC(F)(F)F)CC[C@]3(C)[C@H](C(=O)C=C4[C@@]5(C)C=C(C#N)C(=O)[C@@](C)(O)[C@@H]5CC[C@]43C)[C@@H]2C1` [Compound T24, (4aS,6aR,6bS,8aR,9S,12aS,14aR,14bS)-11-cyano-9-hydroxy-2,2,6a,6b,9,12a-hexamethyl-10,14-dioxo-N-(2,2,2-trifluoroethyl)-1,3,4,5,6,6a,6b,7,8,8a,9,10,12a,14,14a,14b-hexadecahydropicene-4a(2H)-carboxamide] are 7.43, 6.71, 6.73 and 406 nM.
